For 6 compounds, logP and chromatographic logP results are on record in patent EP4292827A1, “INK COMPOSITION, ARTICLE, AND PRODUCTION METHOD THEREFOR” (Zeon Corporation, priority 2021, dated 2022).

Broadly, the logP is the decadic logarithm of the partition coefficient of the neutral form, usually between octanol and water. One may read the chromatographic logP as lipophilicity estimated from chromatographic retention. Low readings indicate lower lipophilicity, high ones higher lipophilicity.

SMILES strings stand for the structures. Like-named read-outs stand apart in the source and are kept apart here.

For data set [1] the following is noted: standard compounds with known logP values described in JIS 7260-117:2006, used for calibration curve; cited from earlier work.

Take `CC(=O)Nc1ccccc1` [Acetanilide]: the logP in data set [1] is 1.0.
`C=CC(=O)OCCCCOC(=O)Oc1ccc(C(=O)Oc2ccc(C(=O)O[C@H]3CO[C@@H]4[C@H]3OC[C@H]4OC(=O)c3ccc(OC(=O)c4ccc(OC(=O)OCCCCOC(=O)C=C)cc4)cc3)cc2)cc1` [Example X3] had a chromatographic logP in “physchem” of 3.58.
Turning to `c1ccc(N(c2ccccc2)c2ccccc2)cc1` [Triphenylamine], the log partition coefficient (logP) in data set [1] is given as 5.7.
In “physchem”, `C=CC(=O)OCCOc1ccc(-c2ccc(C#N)cc2)cc1` [Example X2] returned a chromatographic logP of 1.75.
Still for that read-out and setting: the value for `C=CC(=O)OCCCCCCCCOC(=O)Oc1ccc(C(=O)Oc2ccc(OC(=O)c3ccc(OC(=O)OCCCCCCCCOC(=O)C=C)cc3)c(C)c2)cc1` [Example X4] was 5.11.
`C=CC(=O)OCCCCCCOc1ccc(C(=O)Oc2ccc(/C=N/N=C/c3ccc(OC(=O)c4ccc(OCCCCCCOC(=O)C=C)cc4)c(C(=O)OC)c3)cc2)cc1` [Example X1] displayed a chromatographic logP in the data set “physchem” (hplc) of 6.01.
